Patent US20240156790A1, “COMPOUNDS, COMPOSITIONS, AND METHODS FOR MODULATING FERROPTOSIS AND TREATING EXCITOTOXIC DISORDERS” (THE TRUSTEES OF COLUMBIA UNIVERSITY IN THE CITY OF NEW YORK, priority 2018, published 2024)
Like-named read-outs stand apart in the source and are kept apart here.

Tests used:
[1] = Microsomal stability, pig (Table 1); assay type: in vitro ADME; details: liver microsomes; Pig: Göttingen Minipig; read-out: Microsomal Stability t1/2
[2] = Microsomal stability, rat (Table 1); assay type: in vitro ADME; details: liver microsomes; Rat: Sprague Dawley; read-out: Microsomal Stability t1/2 (converted)
[3] = Human; value marked ^1, Hofmans et al., 2016; cited from earlier work
[4] = Mouse; value marked ^1, Hofmans et al., 2016; cited from earlier work
[5] = Plasma stability, mouse plasma (Table 1); assay type: in vitro ADME
[6] = Plasma stability, human (Table 1); assay type: in vitro ADME
[7] = Microsomal stability, mouse liver microsomes (Table 1); assay type: in vitro ADME, Mouse: CD1; details: CD1, mouse, liver microsomes, Mouse: CD1; read-out: Microsomal Stability t1/2
Experimental: Each compound (1 μM) is incubated with mouse plasma, for 4 hours at 37° C., with shaking at 100 rpm. The concentration of compound in the buffer and plasma chambers is determined using LC-MS/MS. Metabolism of each compound is predicted using Sites of Metabolism (Schrodinger Suite), which combines intrinsic reactivity analysis (Hammett-Taft) with induced fit docking against 2C9, 2D6 and 3A4. This approach identifies 90% of known metabolism sites and has a false positive rate of 17%. The in vitro metabolic stability of each compound in mouse liver microsomes is determined. Pooled mouse liver microsomes are prepared and stored at −80° C. until needed. […]

[8] = Plasma stability, rat (Table 1); assay type: in vitro ADME
[9] = Plasma stability, pig (Table 1); assay type: in vitro ADME
[10] = Microsomal stability, human liver microsomes (Table 1); assay type: in vitro ADME; details: liver microsomes; Human: Pooled, 50 donors; read-out: Microsomal Stability t1/2 (converted)
[11] = In vivo pharmacokinetic study of TH-4-55-2 in drinking water (four days); design: species or system R6/2 mice; details: both sexes, R6/2, mouse, brain, oral, 20-30 mg/kg/day, 4-day treatment, read-out: concentration in brain samples
Experimental: TH-4-55-2 and 42 uM Citric acid were dissolved in 5% DMSO, 5% ethanol, and 90% PBS rendering a final concentration of 0.29 mg/mL Th-4-55-2 in drinking water. The mice drink ˜2 mL water per day, and the resulting dosage was around 20-30 mg/kg/day. C57BL/6 mice at ˜8 weeks of age were treated using drinking water daily for four days. 6 mice were randomly picked, weighed daily, the weight recorded, and the change in body weight compared to the baseline, pre-injection weight was calculated. Any mouse that lost more than 20% of its baseline body weight for three consecutive days was euthanized prior to the completion of the study. Mice were euthanized by CO2 asphyxiation for 3 min after administration. Approximately 0.5 mL of blood was collected via cardiac puncture and immediately put in K3 EDTA microtubes and kept on ice. Brains were harvested, placed in Eppendorf tubes, and frozen on dry ice. […]
Prior to LC-MS analysis, the samples were resuspended in 100 μL methanol and centrifuged for 5 minutes at 14,000×g at 4° C. The supernatant was analyzed via SYNAPT High Resolution Mass Spectrometer.
Samples from animal studies were analyzed via UPLC-MS using a Waters SYNAPT XS Mass spectrometer equipped with an Acquity UPLC. […] All samples were injected twice and the base peak chromatogram was integrated and quantified by a standard curve concurrently ran using MassLynx software and exported. […]

Row | SMILES | half-life [1] [min] | half-life [2] [min] | Microsomal Stability t1/2 [3] [min] | Microsomal Stability t1/2 [4] [min] | Plasma Stability at six hours (% remaining) [5] | Plasma Stability at six hours (% remaining) [6] [%] | half-life [7] [min] | Plasma Stability at six hours (% remaining) [8] | Plasma Stability at six hours (% remaining) [9] | half-life [10] [min] | concentration at 4 days [11] [µM]
1 | CCOC(=O)c1ccc(NC2CCCCC2)c(N)c1 [Fer-1, Ferrostatin-1, reference compound] | 16.2 | 3 | 6.9 ± 0.2 | 1.9 ± 0.6 | 0-2% | 100 | 2.4 | 0-4% | Pig: 100% | 11.4 | 
2 | CCC(CC)Nc1cc(-c2nc(C)no2)cnc1NC1CCCCC1 [TH-4-55-2, N^2-cyclohexyl-5-(3-methyl-1,2,4-oxadiazol-5-yl)-N^3-(pentan-3-yl)pyridine-2,3-diamine] |  |  |  |  |  |  |  |  |  |  | 1.5 to 33
